Experimental data as given in patent US20240051936A1, “ISOINDOLINONE COMPOUNDS” (Monte Rosa Therapeutics, Inc., priority 2021, published 2024).
Where two headings read alike, the source gives them in different places.

How the values were obtained:
[1] = target: Full length wild-type cereblon CRBN (Homo sapiens (Human), UniProt Q96SW2); experiment: Fluorescence polarization (FP) assay, cereblon binding
Experimental: Compound activity was monitored in a fluorescence polarization (FP) homogeneous assay using 1-[5-({2-[2-(2-{[2-(2,6-dioxopiperidin-3-yl)-1,3-dioxo-2,3-dihydro-1H-isoindol-4-yl]oxy}acetamido)ethoxy]ethyl}carbamoyl)pentyl]-3,3-dimethyl-2-[(1E,3E)-5-[(2E)-1,3,3-trimethyl-5-sulfo-2,3-dihydro-1H-indol-2-ylidene]penta-1,3-dien-1-yl]-3H-indol-1-ium-5-sulfonate as a fluorescent probe. Unless otherwise stated, all reagents were purchased from Sigma Aldrich. Enzymatic reactions were conducted in Perkin-Elmer Black 384 well ProxiPlate Plus (catalogue no. 6008269) in 10 sL total volume. Full length wild-type cereblon CRBN (80.0 nM, 10 sL) was incubated in assay buffer containing 20 mM HEPES (pH 8.0), […], 0.5 mM TCEP and 0.05% Tween 20 in the presence or absence of compound (300 nL). Inhibitors were stored as 10 mM DMSO stocks in an inert environment (low humidity, dark, low oxygen, room temperature) using the Storage Pod System.
Compounds and DMSO were dispensed using the Echo E5XX (Labcyte Inc. USA) to give concentrations from 300 to 0.937 or 3000 to 9.3 nM in a 12 data point curve. […] Following incubation at room temperature for 30 min, the assay was initiated by dispensing the probe to a final concentration of 5 nM (2.5 nL of a 20 μM stock) using the Echo E5XX. FP was measured after a period of 12 hours using a Pherastar plate reader (BMG Labtech, Germany) exciting at 590 nm and measuring the amount of parallel and perpendicular light at 675 nm. The FP signal was subsequently normalized to the no-compound control (i.e., DMSO). Analysis and IC50 values were derived using Dotmatics (Dotmatics UK) software.

GSPT1 = GSPT1 (Homo sapiens (Human), UniProt P15170+Q96SW2); experiment: Immunofluorescence assay for GSPT1 degradation in CAL-Si cells; assay type: cell-based; conditions: CAL-Si cells
Chain of GSPT1 (P15170 whole entry): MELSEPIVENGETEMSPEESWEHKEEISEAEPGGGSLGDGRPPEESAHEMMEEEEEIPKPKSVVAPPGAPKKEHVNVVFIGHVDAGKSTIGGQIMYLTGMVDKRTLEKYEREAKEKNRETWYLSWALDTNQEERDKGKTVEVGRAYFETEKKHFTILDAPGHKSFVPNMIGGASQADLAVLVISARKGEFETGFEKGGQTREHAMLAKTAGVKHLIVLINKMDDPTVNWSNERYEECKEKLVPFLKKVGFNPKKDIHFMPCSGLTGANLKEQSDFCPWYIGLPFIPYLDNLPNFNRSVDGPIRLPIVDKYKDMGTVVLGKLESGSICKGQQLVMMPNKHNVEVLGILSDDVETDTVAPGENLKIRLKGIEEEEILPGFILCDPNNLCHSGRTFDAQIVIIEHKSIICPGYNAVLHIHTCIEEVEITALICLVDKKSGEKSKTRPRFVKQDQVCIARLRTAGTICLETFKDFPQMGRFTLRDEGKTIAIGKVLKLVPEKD
Chain of GSPT1 (Q96SW2 whole entry): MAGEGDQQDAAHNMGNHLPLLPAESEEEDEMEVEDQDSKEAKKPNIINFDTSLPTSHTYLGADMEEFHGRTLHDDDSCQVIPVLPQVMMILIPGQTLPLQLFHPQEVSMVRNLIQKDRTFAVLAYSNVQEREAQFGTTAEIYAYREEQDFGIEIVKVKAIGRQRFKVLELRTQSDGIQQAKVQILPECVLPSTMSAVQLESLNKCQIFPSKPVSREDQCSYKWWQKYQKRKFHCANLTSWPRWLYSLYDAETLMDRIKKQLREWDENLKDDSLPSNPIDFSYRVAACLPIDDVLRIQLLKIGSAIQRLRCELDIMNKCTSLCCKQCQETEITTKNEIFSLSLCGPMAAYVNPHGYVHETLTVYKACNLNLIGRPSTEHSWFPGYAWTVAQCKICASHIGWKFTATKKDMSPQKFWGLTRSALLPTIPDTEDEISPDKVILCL
Chain of GSPT1 (Q16531 whole entry partner): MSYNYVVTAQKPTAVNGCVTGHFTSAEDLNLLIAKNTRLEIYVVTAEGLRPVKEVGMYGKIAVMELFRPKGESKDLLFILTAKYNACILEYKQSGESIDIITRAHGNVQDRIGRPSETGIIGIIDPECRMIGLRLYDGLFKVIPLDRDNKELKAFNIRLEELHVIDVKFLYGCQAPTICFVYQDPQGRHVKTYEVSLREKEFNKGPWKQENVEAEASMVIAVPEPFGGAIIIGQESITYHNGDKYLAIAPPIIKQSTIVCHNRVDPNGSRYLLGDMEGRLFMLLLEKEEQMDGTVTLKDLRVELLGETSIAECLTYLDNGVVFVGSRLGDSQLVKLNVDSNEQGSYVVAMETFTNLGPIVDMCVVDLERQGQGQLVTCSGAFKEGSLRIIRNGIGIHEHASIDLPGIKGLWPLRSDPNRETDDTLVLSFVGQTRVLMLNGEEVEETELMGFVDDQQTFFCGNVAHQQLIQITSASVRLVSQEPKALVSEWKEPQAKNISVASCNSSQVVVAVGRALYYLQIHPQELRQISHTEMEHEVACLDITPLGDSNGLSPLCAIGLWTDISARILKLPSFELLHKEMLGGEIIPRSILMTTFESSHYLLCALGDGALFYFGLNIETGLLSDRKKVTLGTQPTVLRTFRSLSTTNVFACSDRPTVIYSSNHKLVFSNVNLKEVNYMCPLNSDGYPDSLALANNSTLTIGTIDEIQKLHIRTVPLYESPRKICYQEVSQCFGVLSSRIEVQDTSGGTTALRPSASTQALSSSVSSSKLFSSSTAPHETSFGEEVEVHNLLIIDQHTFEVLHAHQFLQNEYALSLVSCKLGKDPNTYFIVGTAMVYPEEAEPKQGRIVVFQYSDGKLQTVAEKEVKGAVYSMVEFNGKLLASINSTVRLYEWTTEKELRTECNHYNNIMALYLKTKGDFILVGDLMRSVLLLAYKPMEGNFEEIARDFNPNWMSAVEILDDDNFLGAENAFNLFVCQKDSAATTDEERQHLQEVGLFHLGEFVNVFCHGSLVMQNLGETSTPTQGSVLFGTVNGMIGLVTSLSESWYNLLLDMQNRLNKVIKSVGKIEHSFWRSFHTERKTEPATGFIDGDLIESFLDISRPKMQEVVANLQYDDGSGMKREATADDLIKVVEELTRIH
Experimental: The compounds were tested in an immunofluorescence assay for their activity to bind to degrade GSPT1. CAL-Si cells were purchased from DSMZ (cat. Number ACC302), sub-cultured in 90% Dulbecco's MEM (4.5 g/L glucose, Gibco 11965)+10% heat inactivated FBS (BioConcept, 2-01F136I) and incubated at 37° C., 5% CO2. For the assay, imaging microtiterplate Cell Carrier 96 Ultra (Perkin Elmer 6055302) were pre-coated with Fibronectin (Sigma F085, 30 μl at 0.2 μg/ml) in PBS (100 μl, Gibco 14190) for 45 min at room temperature, rinsed with PBS and CAL-Si cells (30K cells/well) were plated and let to adhere overnight. Cells were treated with compounds typically using a serial dilution ranging from 30 μM to 0.1 nM for 6 hours. Compounds were stored at 10 mM DMSO stocks. Vehicle (DMSO), positive (CC-885, 10 μM) and rescue controls (positive control plus 0.2 μM bortezomib) were also included at this stage. Cells were subsequently rinsed with PBS and fixed in 10% Formalin solution (50 μl, Sigma HT5011)) for 20 mins at room temperature. Following three consecutive PBS washes (100 μl), cells were permeabilized in 0.1% Triton X-100 in PBS (Sigma 93443, 50 μl) for 15 mins at room temperature. Following three further PBS washes, 50 μl blocking buffer (1% BSA, Sigma A4503, in PBS) was added for 45 min for signal-to-noise reduction.
Primary antibody (human GSPT1, Sigma HPA052488) was diluted in blocking buffer (dil.1/300, 35 μl/well) and incubated with the cells overnight at 4° C. After three PBS washes, Alexa-fluor 488 coupled secondary antibodies (Invitrogen, A32731, dil.1/1000), Alexa-fluor 647-Phalloïdin (Invitrogen, A22287, dil.1/200) and DAPI (Thermo, #62248, dil.1/1000) were diluted in blocking buffer and incubated with the samples for 2 hours at room temperature. After three final PBS washes, samples were conserved in 100 μl PBS in the dark, until measurement. Image acquisition was performed on the Operetta High-Content Imager (Perkin-Elmer). Fluorescence intensity of Alexa-Fluor 488 (GSPT1), Alexa-Fluor 647 (Actin) and DAPI (Nucleus) were measured. For the determination of GSPT1 DC50 values, a custom algorithm implemented in the PerkinElmer image analysis software Harmony-Acapella® was developed. After user-defined setting of adjustment parameters, the analysis was run identically without human intervention for all image fields. DAPI staining of the nuclei was used to determine the location of cells using standard nuclei detection modules. Segmentation artifacts were removed by threshold-based filters for area, roundness and intensity. The outline of the cells was determined analogously from the sum of the normalized, smoothed DAPI and Actin channel, starting from each nucleus. The Alexa-Fluor 488 (GSPT1) signal intensity in each cell was finally measured, in order to obtain a Mean intensity per cell. GSPT1 degradation (DC50) was calculated after normalization to controls and data import in CDD vault Database, using non-linear regression.

[2] = cereblon binding, bound, read-out: IC50 value
[3] = wild-type CRBN 80.0 nM, probe 5 nM, FP measured after 12 hours, read-out: rFP IC50
[4] = compounds with code A, read-out: DC50 value code
[5] = treated 6 hours, read-out: Code, activity for GSPT1 degradation (DC50)

Chain of Full length wild-type cereblon CRBN (Q96SW2 whole entry): as the sequence (Q96SW2 whole entry) above

IC50 [1, 2]	IC50 [1, 3]	DC50 (GSPT1; [4])	DC50 (GSPT1; [5])	Structure (SMILES)
< 600 nM				Cc1cc(Cl)cc(NC(=O)OCc2cc(F)c3c(c2)C(=O)N(C2CCC(=O)NC2=O)C3)c1 (stereo not drawn) [Compound 27, (2-(2,6-dioxopiperidin-3-yl)-7-fluoro-3-oxoisoindolin-5-yl)methyl(3-chloro-5-methylphenyl)carbamate]
< 600 nM				Cc1cc(NC(=O)OCc2cc(F)c3c(c2)C(=O)N(C2CCC(=O)NC2=O)C3)cnc1-c1ccccc1 (stereo not drawn) [Compound 20, (2-(2,6-dioxopiperidin-3-yl)-7-fluoro-3-oxoisoindolin-5-yl)methyl(5-methyl-6-phenylpyridin-3-yl)carbamate]
< 600 nM	≤ 600 nM	< 30 nM	< 30 nM	COc1cc(COC(=O)Nc2ccc(-c3ccccc3C)nc2)cc2c1CN(C1CCC(=O)NC1=O)C2=O (stereo not drawn) [Compound 60, (2-(2,6-dioxopiperidin-3-yl)-7-methoxy-3-oxoisoindolin-5-yl)methyl (6-(o-tolyl)pyridin-3-yl)carbamate]
	> 1900 nM		30 to 300 nM	O=C1CCC(N2Cc3c(F)cc(COC(=O)Nc4cccc(OC(F)(F)F)c4)cc3C2=O)C(=O)N1 (stereo not drawn) [Compound 15, (2-(2,6-dioxopiperidin-3-yl)-7-fluoro-3-oxoisoindolin-5-yl)methyl (3-(trifluoromethoxy)phenyl)carbamate]
< 600 nM	600 to 1200 nM	< 30 nM	< 30 nM	COc1cc(COC(=O)Nc2cc(F)cc(Cl)c2)cc2c1CN(C1CCC(=O)NC1=O)C2=O (stereo not drawn) [Compound 50, (2-(2,6-dioxopiperidin-3-yl)-7-methoxy-3-oxoisoindolin-5-yl)methyl(3-chloro-5-fluorophenyl)carbamate]
< 600 nM	≤ 600 nM	< 30 nM	< 30 nM	COc1cc(COC(=O)Nc2cc(-c3ccccc3)ccn2)cc2c1CN(C1CCC(=O)NC1=O)C2=O (stereo not drawn) [Compound 56, (2-(2,6-dioxopiperidin-3-yl)-7-methoxy-3-oxoisoindolin-5-yl)methyl (4-phenylpyridin-2-yl)carbamate]
< 600 nM				C[C@@H]1CCCN1c1ccc(NC(=O)OCc2cc(F)c3c(c2)C(=O)N(C2CCC(=O)NC2=O)C3)cn1 (stereo partly drawn) [Compound 23, (2-(2,6-dioxopiperidin-3-yl)-7-fluoro-3-oxoisoindolin-5-yl)methyl (6-((R)-2-methylpyrrolidin-1-yl)pyridin-3-yl)carbamate]
			> 300 nM	COc1cc(COC(=O)Nc2cc(Cl)c(C)cc2F)cc2c1CN(C1CCC(=O)NC1=O)C2=O (stereo not drawn) [Compound 68, (2-(2,6-dioxopiperidin-3-yl)-7-methoxy-3-oxoisoindolin-5-yl)methyl (5-chloro-2-fluoro-4-methylphenyl)carbamate]
			30 to 300 nM	Cc1cc(F)c(NC(=O)OCc2cc(F)c3c(c2)C(=O)N(C2CCC(=O)NC2=O)C3)cc1Cl (stereo not drawn) [Compound 64, (2-(2,6-dioxopiperidin-3-yl)-7-fluoro-3-oxoisoindolin-5-yl)methyl(5-chloro-2-fluoro-4-methylphenyl)carbamate]
< 1200 nM				COc1cc(COC(=O)Nc2ccc(C3CCC3)cc2)cc2c1CN(C1CCC(=O)NC1=O)C2=O (stereo not drawn) [Compound 57, (2-(2,6-dioxopiperidin-3-yl)-7-methoxy-3-oxoisoindolin-5-yl)methyl(4-cyclobutylphenyl) carbamate]
< 600 nM				CC(C)(C)c1ccc(NC(=O)OCc2cc(F)c3c(c2)C(=O)N(C2CCC(=O)NC2=O)C3)cn1 (stereo not drawn) [Compound 9, (2-(2,6-dioxopiperidin-3-yl)-7-fluoro-3-oxoisoindolin-5-yl)methyl(6-(tert-butyl)pyridin-3-yl)carbamate]
			30 to 300 nM	Cc1cc(F)cc(NC(=O)OCc2cc(F)c3c(c2)C(=O)N(C2CCC(=O)NC2=O)C3)c1 (stereo not drawn) [Compound 63, (2-(2,6-dioxopiperidin-3-yl)-7-fluoro-3-oxoisoindolin-5-yl)methyl (3-fluoro-5-methylphenyl)carbamate]
< 600 nM				COc1cc(COC(=O)Nc2cc(F)cc(OC(F)F)c2)cc2c1CN(C1CCC(=O)NC1=O)C2=O (stereo not drawn) [Compound 47, (2-(2,6-dioxopiperidin-3-yl)-7-methoxy-3-oxoisoindolin-5-yl)methyl(3-(difluoromethoxy)-5-fluorophenyl) carbamate]
< 600 nM				COc1cc(COC(=O)Nc2ccc(F)c(OC(F)(F)F)c2)cc2c1CN(C1CCC(=O)NC1=O)C2=O (stereo not drawn) [Compound 39, (2-(2,6-dioxopiperidin-3-yl)-7-methoxy-3-oxoisoindolin-5-yl)methyl(4-fluoro-3-(trifluoromethoxy)phenyl) carbamate]
			30 to 300 nM	O=C1CCC(N2Cc3c(F)cc(COC(=O)Nc4cc(OC(F)(F)F)ccc4F)cc3C2=O)C(=O)N1 (stereo not drawn) [Compound 65, (2-(2,6-dioxopiperidin-3-yl)-7-fluoro-3-oxoisoindolin-5-yl)methyl (2-fluoro-5-(trifluoromethoxy)phenyl) carbamate]
< 600 nM	≤ 600 nM			COc1cc(COC(=O)Nc2ccc(N3CCCC3C)nc2)cc2c1CN(C1CCC(=O)NC1=O)C2=O (stereo in doubt) [Compound 62, (2-(2,6-dioxopiperidin-3-yl)-7-methoxy-3-oxoisoindolin-5-yl)methyl (6-((R)-2-methylpyrrolidin-1-yl)pyridin-3-yl)carbamate]
< 1200 nM				CC1(C)COc2cc(NC(=O)OCc3cc(F)c4c(c3)C(=O)N(C3CCC(=O)NC3=O)C4)ccc21 (stereo not drawn) [Compound 17, (2-(2,6-dioxopiperidin-3-yl)-7-fluoro-3-oxoisoindolin-5-yl)methyl(3,3-dimethyl-2,3-dihydrobenzofuran-6-yl) carbamate]

Structure (SMILES)	IC50 [1, 2]	IC50 [1, 3]	DC50 (GSPT1; [4])	DC50 (GSPT1; [5])
COc1cc(COC(=O)Nc2ccc(N3CCCCC3C)nc2)cc2c1CN(C1CCC(=O)NC1=O)C2=O (stereo not drawn) [Compound 38, (2-(2,6-dioxopiperidin-3-yl)-7-methoxy-3-oxoisoindolin-5-yl)methyl(6-(2-methylpiperidin-1-yl)pyridin-3-yl)carbamate]	< 600 nM	≤ 600 nM	< 30 nM	< 30 nM
O=C1CCC(N2Cc3c(F)cc(COC(=O)Nc4ccc(-c5ccccc5)nc4)cc3C2=O)C(=O)N1 (stereo not drawn) [Compound 8, (2-(2,6-dioxopiperidin-3-yl)-7-fluoro-3-oxoisoindolin-5-yl)methyl(6-phenylpyridin-3-yl)carbamate]		> 1900 nM	< 30 nM	< 30 nM
Cc1ccc(NC(=O)OCc2ccc3c(c2C)C(=O)N(C2CCC(=O)NC2=O)C3)cc1Cl (stereo not drawn) [Compound 73, (2-(2,6-dioxopiperidin-3-yl)-4-methyl-3-oxoisoindolin-5-yl)methyl(3-chloro-4-methylphenyl)carbamate]		≤ 600 nM		
